Measurements from ChEMBL document CHEMBL1153709, “NSAID-derived gamma-secretase modulators. Part III: Membrane anchoring” (Bioorg Med Chem Lett, 2009).

Columns and labels:
Assay type in all cases: cell-based
Gamma-secretase [1] = test: Modulation of gamma-secretase in human H4 cells assessed as increase in amyloid beta38 production by LPECL assay
Gamma-secretase [2] = test: Modulation of gamma-secretase in human H4 cells assessed as inhibition of in amyloid beta40 production by LPECL assay
Gamma-secretase [3] = test: Modulation of gamma-secretase in human H4 cells assessed as inhibition of in amyloid beta42 production by LPECL assay
H4 = test: Cytotoxicity against human H4 cells by MTS assay
[4] = molecular target: Gamma-secretase (Homo sapiens) (UniProt Q96BI3+Q9NZ42+Q8WW43+P49768+Q92542+P49810); test: Modulation of gamma-secretase in human H4 cells assessed as reduction of in amyloid beta42 production at 40 uM by LPECL assay; design: scale not given: the % may be the effect or the level left

Row | SMILES | EC50 (Gamma-secretase [1]) | IC50 (Gamma-secretase [2]) | IC50 (Gamma-secretase [3]) | Activity (H4) | Activity [4]
1 | CCCCCCCC/C=C\CCCCCCCC(=O)n1c2ccccc2c2ccc(OCC(=O)O)cc21 | 9.2 µM | > 40 µM | 13.1 µM | – | –
2 | CC(C)(Oc1ccc(/C(=N\OCCCCCCCCCO/N=C(/c2ccc(Cl)cc2)c2ccc(OC(C)(C)C(=O)O)cc2)c2ccc(Cl)cc2)cc1)C(=O)O | > 40 µM | > 40 µM | > 40 µM | 80 µM | –
3 | CCCCCCCCCCCCCCCCCCn1c2ccccc2c2ccc(OCC(=O)O)cc21 | 1.4 µM | > 80 µM | 26 µM | – | –
4 | CN(C)c1cccc2c(S(=O)(=O)n3c4ccccc4c4ccc(OCC(=O)O)cc43)cccc12 | > 40 µM | > 40 µM | > 40 µM | 80 µM | –
5 | CC(C)(Oc1ccc(/C(=N\OCCCCCCCCCCO/N=C(/c2ccc(Cl)cc2)c2ccc(OC(C)(C)C(=O)O)cc2)c2ccc(Cl)cc2)cc1)C(=O)O | > 40 µM | > 40 µM | > 32.6 µM | 80 µM | –
6 | CCCCCCCCCCCO/N=C(/c1ccc(Cl)cc1)c1ccc(OC(C)(C)C(=O)O)cc1 | > 40 µM | > 40 µM | > 40 µM | – | –
7 | CCCCCCCCO/N=C(/c1ccc(Cl)cc1)c1ccc(OC(C)(C)C(=O)O)cc1 | 16.1 µM | 47.6 µM | 36.2 µM | 80 µM | 60%
8 | CCCCCCCCCCCCCCCCO/N=C(/c1ccc(Cl)cc1)c1ccc(OC(C)(C)C(=O)O)cc1 | > 80 µM | > 80 µM | > 80 µM | – | –
9 | CC(C)(Oc1ccc(C(/N=N/c2ccc([N+](=O)[O-])cc2[N+](=O)[O-])c2ccc(Cl)cc2)cc1)C(=O)O (stereo not given) | 47.6 µM | 37.3 µM | 17 µM | 80 µM | –
10 | CCCCCCCCCO/N=C(/c1ccc(Cl)cc1)c1ccc(OC(C)(C)C(=O)O)cc1 | > 40 µM | > 40 µM | > 40 µM | – | –
11 | CCCCCCCC/C=C/CCCCCCCC(=O)n1c2ccccc2c2ccc(OCC(=O)O)cc21 | 9.3 µM | > 40 µM | 13 µM | – | –
12 | CCCCCCCCCCCCCCO/N=C(/c1ccc(Cl)cc1)c1ccc(OC(C)(C)C(=O)O)cc1 | > 80 µM | > 80 µM | > 80 µM | – | –
13 | CCCCCCCCCCO/N=C(/c1ccc(Cl)cc1)c1ccc(OC(C)(C)C(=O)O)cc1 | > 80 µM | > 80 µM | 36.1 µM | – | 60%
14 | O=C(O)COc1ccc2c3ccccc3n(Cc3cccc(C4(C(F)(F)F)N=N4)c3)c2c1 | > 80 µM | > 80 µM | > 80 µM | – | –
15 | CN(C)c1ccc(/N=N/c2ccc(S(=O)(=O)n3c4ccccc4c4ccc(OCC(=O)O)cc43)cc2)cc1 | 7.6 µM | > 80 µM | 9 µM | – | –
16 | N#Cc1ccccc1-c1ccc(Cn2c3ccccc3c3ccc(OCC(=O)O)cc32)cc1 | > 80 µM | > 80 µM | > 80 µM | – | –
17 | CC(C)(Oc1ccc(/C(=N\OCCCCCCCCO/N=C(/c2ccc(Cl)cc2)c2ccc(OC(C)(C)C(=O)O)cc2)c2ccc(Cl)cc2)cc1)C(=O)O | 47.6 µM | 37.3 µM | 23.7 µM | – | –
18 | CCCCCCCCCC(=O)n1c2ccccc2c2ccc(OCC(=O)O)cc21 | 12.6 µM | > 40 µM | 22.4 µM | – | –
19 | CCCCCCCCCCCCO/N=C(/c1ccc(Cl)cc1)c1ccc(OC(C)(C)C(=O)O)cc1 | > 40 µM | > 40 µM | > 40 µM | 80 µM | –
